From article PMC12377313, “New 1E,1′E-hydrazine-bis(phenoxy-1,2,3-triazol-acetamide) derivatives as potent inhibitors against acetylcholinesterase, butyrylcholinesterase, and α-glucosidase” (RSC Advances, 2025) come the findings set out here.

Like-named read-outs stand apart in the source and are kept apart here.

Experiment [1] concerns the target T1, α-glucosidase (Saccharomyces cerevisiae, UniProt P53341). Briefly: Kinetic study (Lineweaver–Burk plots), α-glucosidase. Type of experiment: biochemical. The procedure: In this regard, compound 10k for AChE and BChE and compound 10h for α-glucosidase were selected. The type of inhibition of these compounds was determined by Lineweaver–Burk plots. […] These indicated a competitive type of inhibition for compound 10k.

The target of experiment [2] is T1, α-glucosidase. Briefly: α-Glucosidase inhibition assay (p-NPG substrate). Type of experiment: biochemical, yeast. Here is the method: For this assay, the yeast form of α-glucosidase was used and p-nitrophenyl-α-D-glycopyranoside (p-NPG) was used as the substrate. The required solutions of these materials were prepared in a phosphate buffer solution (pH of 7.4 and a concentration of 5 mM). […] Subsequently, a mixture containing 200 μL of phosphate solution, 50 μL of the substrate, and 5–200 μL of the sample solution was pre-incubated at 35 °C for 3 min for α-glucosidase.

In experiment [3] the test system is SH-SY5Y neuroblastoma cells. Briefly: MTT cell viability assay, SH-SY5Y. The format is cell-based, human. The note with it: for Selectivity (selectivity index): HEK293 versus SH-SY5Y; for IC50: 24 h treatment, MTT, mean ± SD (n = 3), read-out: IC50 (μM) SH-SY5Y. Here is the method:
The cells were incubated at 37 °C in a humidified atmosphere of 5% CO2. Both cell lines were provided by the American Type Culture Collection (ATCC).[30,31]
Each concentration was tested in triplicate.
(§1) Following treatment, 10 μL of MTT solution (5 mg mL^−1 in PBS) was added to each well and incubated for an additional 4 hours under the same conditions. At the end of the incubation period, the medium containing MTT was carefully removed, and the formazan crystals formed by viable cells were solubilized in 100 μL of DMSO per well. The absorbance was measured at 570 nm using a microplate reader. The net absorbance (after blank subtraction) was used to calculate the percentage cell viability relative to the untreated control cells, which was set at 100%. All results were expressed as mean ± standard deviation (SD) of three independent experiments.[32,33]
In general terms: Formazan colour is commonly taken as a measure of viable cells.

For experiment [4], the target named is T2, BChE (Homo sapiens, UniProt P06276). Briefly: biochemical.
T2 sequence (P06276 29-602): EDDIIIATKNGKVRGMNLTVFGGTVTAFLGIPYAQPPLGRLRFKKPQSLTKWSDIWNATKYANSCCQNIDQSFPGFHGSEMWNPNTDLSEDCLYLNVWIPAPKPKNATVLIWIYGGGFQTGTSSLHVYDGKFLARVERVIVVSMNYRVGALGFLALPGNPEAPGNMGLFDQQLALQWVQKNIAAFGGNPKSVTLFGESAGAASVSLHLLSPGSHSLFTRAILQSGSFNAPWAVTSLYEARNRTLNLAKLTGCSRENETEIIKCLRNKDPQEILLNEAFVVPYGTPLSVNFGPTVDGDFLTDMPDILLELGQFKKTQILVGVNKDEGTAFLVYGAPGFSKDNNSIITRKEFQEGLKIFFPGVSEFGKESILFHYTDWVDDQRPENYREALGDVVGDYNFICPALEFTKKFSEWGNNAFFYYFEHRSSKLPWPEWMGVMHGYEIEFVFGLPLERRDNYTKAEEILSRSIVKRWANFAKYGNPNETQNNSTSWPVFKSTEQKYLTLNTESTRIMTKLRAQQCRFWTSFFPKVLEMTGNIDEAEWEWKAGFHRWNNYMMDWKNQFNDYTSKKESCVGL
Experiment [5] relates to HEK293 embryonic kidney cells. Nature of the experiment: MTT cell viability assay, HEK293. Type of experiment: cell-based. The conditions noted are these: Homo sapiens, HEK293; 24 h treatment, MTT, mean ± SD (n = 3); read-out: IC50 (μM) HEK-293. The procedure: The human neuroblastoma cell line SH-SY5Y (ATCC® CRL-2266™) and HEK293 (ATCC® CRL-1573™) human embryonic kidney cells were grown in Dulbecco's Modified Eagle Medium/Nutrient Mixture F-12 (DMEM/F-12) culture containing 10% heat-inactivated fetal bovine serum (FBS) and 1% antibiotics. The cells were incubated at 37 °C in a humidified atmosphere of 5% CO2. Both cell lines were provided by the American Type Culture Collection (ATCC).[30,31]
SH-SY5Y (ATCC® CRL-2266™) and HEK293 (ATCC® CRL-1573™) cells were seeded into 96-well plates at a density of 5 × 10^3 cells per well, and allowed to adhere overnight in a humidified incubator at 37 °C with 5% CO2. After attachment, the cells were treated with eight different concentrations of the target compounds (200, 100, 50, 25, 12.5, 6.25, 3.125, and 1.5625 μM), prepared via serial 1 : 2 dilutions, for 24 hours. Each concentration was tested in triplicate.
as §1

The target in experiment [6] is T3, AChE (Homo sapiens, UniProt P22303). Briefly: biochemical. The format is biochemical. The conditions noted are these: read-out: IC50 (nM) AChE.
T3 sequence (P22303 32-614): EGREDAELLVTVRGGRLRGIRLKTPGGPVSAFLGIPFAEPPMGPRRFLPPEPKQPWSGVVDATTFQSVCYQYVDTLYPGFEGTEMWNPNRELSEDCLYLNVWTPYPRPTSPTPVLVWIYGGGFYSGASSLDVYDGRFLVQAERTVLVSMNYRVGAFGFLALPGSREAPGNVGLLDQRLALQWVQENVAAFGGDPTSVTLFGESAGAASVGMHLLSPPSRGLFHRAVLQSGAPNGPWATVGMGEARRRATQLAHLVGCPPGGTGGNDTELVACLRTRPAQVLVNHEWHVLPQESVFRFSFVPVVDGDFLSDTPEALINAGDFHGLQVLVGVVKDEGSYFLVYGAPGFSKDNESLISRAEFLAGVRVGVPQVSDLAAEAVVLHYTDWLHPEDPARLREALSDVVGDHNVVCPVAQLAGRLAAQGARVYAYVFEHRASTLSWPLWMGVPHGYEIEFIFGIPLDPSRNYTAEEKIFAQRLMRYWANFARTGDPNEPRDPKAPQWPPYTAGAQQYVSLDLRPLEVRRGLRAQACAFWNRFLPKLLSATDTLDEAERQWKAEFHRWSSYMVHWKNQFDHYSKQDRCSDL
Experiment [7] concerns the target T3, AChE. Briefly: Kinetic study (Lineweaver–Burk plots), AChE. Type of experiment: biochemical. The procedure:
(§2) […]. In this regard, compound 10k for AChE and BChE and compound 10h for α-glucosidase were selected. The type of inhibition of these compounds was determined by Lineweaver–Burk plots. […] These indicated a competitive type of inhibition for compound 10k.

Experiment [8] deals with T2, BChE. Nature of the experiment: Kinetic study (Lineweaver–Burk plots), BChE. Type of experiment: biochemical. The procedure:
as §2

T1 sequence (P53341 whole entry): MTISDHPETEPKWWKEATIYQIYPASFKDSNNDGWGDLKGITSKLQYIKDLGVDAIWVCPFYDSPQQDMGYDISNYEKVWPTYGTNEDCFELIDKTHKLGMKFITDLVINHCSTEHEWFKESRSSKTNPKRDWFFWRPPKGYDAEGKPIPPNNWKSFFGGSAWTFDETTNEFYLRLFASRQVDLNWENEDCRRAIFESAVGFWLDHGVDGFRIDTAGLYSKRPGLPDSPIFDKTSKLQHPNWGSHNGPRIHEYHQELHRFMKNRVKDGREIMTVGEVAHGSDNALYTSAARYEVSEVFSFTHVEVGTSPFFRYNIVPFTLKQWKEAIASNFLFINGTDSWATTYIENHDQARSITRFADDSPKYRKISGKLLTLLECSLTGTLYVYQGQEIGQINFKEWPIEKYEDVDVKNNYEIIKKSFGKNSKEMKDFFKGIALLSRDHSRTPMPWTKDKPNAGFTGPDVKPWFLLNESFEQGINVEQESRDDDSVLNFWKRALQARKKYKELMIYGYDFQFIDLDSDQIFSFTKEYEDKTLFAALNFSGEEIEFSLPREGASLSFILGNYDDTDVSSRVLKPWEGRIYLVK

The IC50 is the concentration that inhibits the measured activity by half. For `O=C(Cn1cc(COc2ccc(/C=N/N=C/c3ccc(OCc4cn(CC(=O)Nc5ccccc5Cl)nn4)cc3)cc2)nn1)Nc1ccccc1Cl` [Compound 10h, 2,2′-((((((1E,1′E)-Hydrazine-1,2-diylidenebis(methaneylylidene))bis(4,1-phenylene))bis(oxy))bis(methylene))bis(1H-1,2,3-triazole-4,1-diyl))bis(N-(2-chlorophenyl)acetamide)], the “type of inhibition against α-glucosidase” value in experiment [1] is given as “non-competitive”. Moreover, the half-maximal inhibitory concentration (IC50) in experiment [2] was determined as 23.9 ± 3.42 nM; in experiment [3] (Homo sapiens, SH-SY5Y, 24 h), 7.42 ± 0.07 µM; in experiment [4], 19.4 ± 0.65 nM; in experiment [5], 78.38 ± 0.57 µM; in experiment [6], 118 ± 9.17 nM. Besides, the “Selectivity (selectivity index)” value in experiment [3] was determined as 10.6.
Turning to `O=C(Cn1cc(COc2ccc(/C=N/N=C/c3ccc(OCc4cn(CC(=O)Nc5ccc(Cl)cc5Cl)nn4)cc3)cc2)nn1)Nc1ccc(Cl)cc1Cl` [Compound 10k, 2,2′-((((((1E,1′E)-Hydrazine-1,2-diylidenebis(methaneylylidene))bis(4,1-phenylene))bis(oxy))bis(methylene))bis(1H-1,2,3-triazole-4,1-diyl))bis(N-(2,4-dichlorophenyl)acetamide)], in experiment [7], the “type of inhibition against AChE” value is given as “competitive”. For the same compound, the “type of inhibition against BChE” value in experiment [8] is recorded as “competitive”. Further, the IC50 in experiment [2] stood at 46.1 ± 3.26 nM; in experiment [3] (Homo sapiens, SH-SY5Y, 24 h) it was 8.11 ± 0.07 µM; in experiment [4], 10.1 ± 1.08 nM; in experiment [5], 81.71 ± 0.56 µM; in experiment [6] it was 105 ± 7.32 nM. For the same compound, in experiment [3], the “Selectivity (selectivity index)” value was 10.1.
For the compound `O=C(Cn1cc(COc2ccc(/C=N/N=C/c3ccc(OCc4cn(CC(=O)Nc5ccc(Br)cc5)nn4)cc3)cc2)nn1)Nc1ccc(Br)cc1` [Compound 10l, 2,2′-((((((1E,1′E)-Hydrazine-1,2-diylidenebis(methaneylylidene))bis(4,1-phenylene))bis(oxy))bis(methylene))bis(1H-1,2,3-triazole-4,1-diyl))bis(N-(4-bromophenyl)acetamide)], the half-inhibitory concentration (IC50) in experiment [2] is 39.1 ± 5.1 nM; in experiment [3], 42.15 ± 0.37 µM; in experiment [3] (Homo sapiens, SH-SY5Y, 24 h) it was greater than 30 µM; in experiment [4] it was 16.4 ± 4.74 nM; in experiment [5], 92.86 ± 0.71 µM; in experiment [6] it was 148 ± 8.23 nM. Also, in experiment [3], the “Selectivity (selectivity index)” value is recorded as 2.2.
